Here are results for twelve molecules from patent US10286084B2, “Compositions for the inactivation of virus replication and methods of making and using the same” (priority 2014, dated 2019).

Counter-ions that a name gives are not always drawn. Like-named read-outs stand apart in the source and are kept apart here.

Holding throughout (assay type): cell-based
In one data set the test system is HBV. The experiment in a line: HBV DNA release into supernatant of transduced HBV2.2.15 cells, with or without antivirals. The settings on record: compound 1 μM, relative to untreated N.S. sgRNA cells, average ± SD; for inhibition at 1 µM: Hepatitis B virus. As to the method: HepAD38 or HBV2.2.15 cells were transduced with lentiviral vectors expressing a puromycin resistance gene as well as Spy Cas9 and an sgRNA, as described above, at 85-90% confluency after growth in medium lacking Tet for 48 h, to ensure expression of HBV mRNAs and DNA. Beginning at 48 h post-transduction, cells were selected in 4 μg/ml puromycin (Life Technologies) for 10 days to eliminate any non-transduced cells. Supernatant media and cells were then harvested for ELISA and real-time PCR assays. Control cells including non-transduced HepAD38 cells were included as positive controls for HBV replication (in medium lacking Tet) or virtual absence of HBV replication (in medium containing Tet). Non-transduced HBV 2.2.15 cells were included as a control in experiments where relevant.
On day 7, total DNA was purified from supernatant using a commercially available kit (DNeasy Blood & Tissue kit, Qiagen). The HBV DNA was amplified in a real-time PCR assay using the AB 7900HT sequence detection system (Applied Biosystems) or the LightCycler 480 (Roche) as described by Stuyver et al. (2002). All samples were tested in duplicate. The concentration of compound that inhibited HBV DNA replication by 50% (EC50) or 90% (EC90) was determined by linear regression. HBV log viral reduction was also determined.
After transduction with Cas9/sgRNA expressing lentiviral constructs and selection, we observed that extracellular levels of HBV DNA were suppressed by ˜98%, ˜80%, and ˜90%, respectively, by the RT, surface Ag, and core specific Cas9/sgRNA combinations (Table 1).

A further data set relates to HSV-1 ICP0 gene. The experiment in a line: FLuc indicator assay in 293T cells, Sau Cas9 sgRNA expressed from various tRNAs. The settings on record: Sau Cas9, identical HSV-1 ICP0 sgRNA (SEQ ID NO: 16), tRNA promoter varied. The text has this: (§1) Human tRNA sequences were obtained from the Genomic tRNA database and the MHV tRNA-7 sequence was obtained from Bogerd et al. 2010. (Mol. Cell 37, p135-142, 2010). To generate a tRNA-sgRNA expression construct, overlapping oligonucleotides were assembled to create a tRNA fused to an sgRNA scaffold and a pol III termination signal. Between the tRNA and the sgRNA scaffold, two BsmBI or BbsI sites were incorporated to allow for the insertion of variable targeting sequences. tRNA-sgRNA cassettes were then cloned into Cas9 expression vectors pCMVSau (discussed more fully below), pCMVNme, or pX330 (Addgene, plasmid #42230) expressing S. aureus, N. meningitidis, or S. pyogenes Cas9, respectively. In the case of pX330 the U6 promoter was exchanged for the tRNA-sgRNA cassette.
(§2) Reporter assays with 293T cells were performed by using the calcium phosphate transfection method. Briefly, 293T cells were plated at ˜1.25×10^5 cells per well in 12-well plates and transfected with a 4:1 ratio of the RGN expression plasmid to the FLuc-based indicator plasmid as well as 10 ng of a RLuc plasmid. Transfected 293T cells were then harvested 72 hours post transfection in Passive Lysis Buffer (Promega) and assayed for both FLuc and RLuc activity (Promega Dual-Luciferase Reporter Assay System) with RLuc serving as an internal control and normalization factor.
As such Sau encodes a promising Cas9 gene for potential use in AAV vectors. To analyze whether we could also produce active Sau sgRNAs using tRNA promoters, we expressed the identical Sau sgRNA, specific for a target within the HSV-1 ICP0 gene (SEQ ID NO: 16), using a wide range of human tRNAs. […] The reason for the lower efficiency of processing seen with all of these tRNA:sgRNA fusions is currently unclear, but could relate to the single invariant sgRNA sequence used in this experiment.

Data set [1] concerns HPV-18 E6 or E7 gene target. The experiment in a line: FLuc indicator assay in 293T cells, Spy Cas9 sgRNAs expressed from U6 or tRNA promoters. The settings on record: Spy Cas9, 72 h, promoter driving the sgRNA varied.
Source text: as §1, §2
Initially we generated predicted fusion transcripts consisting of a human glutamine tRNA (SEQ ID NO: 41), a human histidine tRNA (SEQ ID NO: 44) or an MHV68 tRNA (M1-7; SEQ ID NO: 50)) linked to Spy Cas9 sgRNAs specific for a target DNA sequence derived either from the human papillomavirus serotype 18 (HPV-18) E6 or E7 gene (SEQ ID NO: 8 and 10, respectively), as described above. Indicator plasmids consisting of these viral target sequences linked to the FLuc gene, constructed as described above, were then co-transfected into 293T cells along with a plasmid encoding Spy Cas9, plasmids encoding each of the tRNA promoters, or the U6 promoter, linked to the same sgRNA and finally a RLuc-based internal control plasmid. Cells were harvested at 72 h post-transfection and FLuc and RLuc levels determined.

Setting [2] is: HBV2.2.15 cells expressing Cas9 and HBV RT sgRNA, read-out: Percent inhibition of HBV DNA release into the supernatant medium, HBV RT sgRNA.
Setting [3] is: HBV2.2.15 cells expressing Cas9 and HBV core sgRNA, read-out: Percent inhibition of HBV DNA release into the supernatant medium, HBV core sgRNA.
Where [4] appears, read: HBV2.2.15 cells expressing Cas9 and HBV surface sgRNA, read-out: Percent inhibition of HBV DNA release into the supernatant medium, HBV surface sgRNA.
Where [5] appears, read: HBV2.2.15 cells expressing Cas9 and N.S. sgRNA, triplicate, read-out: Percent inhibition of HBV DNA release into the supernatant medium, N.S. sgRNA.

For `C=C1[C@H](CO)[C@@H](O)C[C@@H]1n1cnc2c(=O)[nH]c(N)nc21` [ETV, entecavir], the inhibition (usually the relative decrease from the control value, in per cent) at 1 µM in the data set with HBV (setting [2]) was 98.5 ± 1%; with HBV (setting [3]) it was 97.9 ± 0.6%; in the data set with HBV (setting [4]), 97.6 ± 1.1%; in the data set on HBV (setting [5]) it was 78.3 ± 7.9%.
For the molecule `COC(=O)C1=C(CN2CCOCC2)NC(c2ccccn2)=NC1c1ccc(F)cc1Cl` (stereo not shown) [HAP12, heteroaryldihydropyrimidine], the “Percent inhibition of HBV DNA release into the supernatant medium, HBV RT sgRNA” value with HBV (HBV2.2.15 cells expressing Cas9 and HBV RT sgRNA) worked out at 97.5 ± 0.7%. For the same molecule, in the data set on HBV (HBV2.2.15 cells expressing Cas9 and HBV core sgRNA), the “Percent inhibition of HBV DNA release into the supernatant medium, HBV core sgRNA” value amounted to 97.6 ± 0.1%. The “Percent inhibition of HBV DNA release into the supernatant medium, HBV surface sgRNA” value in the data set with HBV (HBV2.2.15 cells expressing Cas9 and HBV surface sgRNA) is reported as 98.0 ± 0.3%. The “Percent inhibition of HBV DNA release into the supernatant medium, N.S. sgRNA” value with HBV (HBV2.2.15 cells expressing Cas9 and N.S. sgRNA, triplicate) was 77.5 ± 5.2%.
For the molecule `Nc1ccn([C@@H]2CS[C@H](CO)O2)c(=O)n1` [3TC, lamivudine], the inhibition at 1 µM with HBV (setting [2]) is 99.1 ± 0.03%; in the data set with HBV (setting [3]) it was 97.1 ± 0.5%; with HBV (setting [4]), 96.3 ± 0.1%; in the data set with HBV (setting [5]), 61.4 ± 6.2%.
The matching figures for `CC(C)OC(=O)OCOP(=O)(CO[C@H](C)Cn1cnc2c(N)ncnc21)OCOC(=O)OC(C)C` [TDF, tenofovir disoproxil fumarate]: 98.9 ± 0.2%, 97 ± 0.3%, 95.9 ± 0.7% and 68.1 ± 1.5%.

B1: tRNACYS: human tRNA promoter, SEQ ID NO: 48, fused to sgRNA (nucleic acid)
DNA: GGGGGTATAGCTCAGGGGTAGAGCATTTGACTGCAGATCAAGAGGTCCCCAGTTCAAATCTGGGTGCCCCCT
modifications: expressed or natural sequence
As for B1, in the data set on HSV-1 ICP0 gene, the “knockdown of FLuc indicator” value is recorded as “readily detectable knockdown”.

B2: tRNAHIS: human histidine tRNA promoter (SEQ ID NO: 44) fused to sgRNA (nucleic acid)
DNA: GCCGTGATCGTATAGTGGTTAGTACTCTGCGTTGTGGCCGCAGCAACCTCGGTTCGAATCCGAGTCACGGCA
modifications: expressed or natural sequence
Turning to B2, the “knockdown of E6- and E7-based FLuc indicator constructs” value in data set [1] is “slightly less effective”.

B3: tRNAGLN: human glutamine tRNA promoter (SEQ ID NO: 41) fused to sgRNA (nucleic acid)
DNA: GGTTCCATGGTGTAATGGTTAGCACTCTGGACTCTGAATCCAGCGATCCGAGTTCAAATCTCGGTGGAACCT
modifications: expressed or natural sequence
For the molecule B3, the “knockdown of FLuc indicator” value in the data set with HSV-1 ICP0 gene is listed as “strong knockdown”. Further, the “knockdown of E6- and E7-based FLuc indicator constructs” value in data set [1] is “effective and comparable knockdown”.

B4: tRNAGLN2: human tRNA promoter, SEQ ID NO: 45, fused to sgRNA (nucleic acid)
DNA: GGTTCCATGGTGTAATGGTTAGCACTCTGGACTCTGAATCCAGCGATCCGAGTTCAAATCTCGGTGGAACCT
modifications: expressed or natural sequence
For B4, the “knockdown of FLuc indicator” value in the data set with HSV-1 ICP0 gene is “strong knockdown”.

B5: tRNATYR: human tRNA promoter, SEQ ID NO: 49, fused to sgRNA (nucleic acid)
DNA: GTCAGTGTTGCACAACGGTTAAGTGAAGAGGCTGTAAACCCAGACTGGATGGGTTCAATTCCCATCTCTGCCG
modifications: expressed or natural sequence
Consider B5, for which the “knockdown of FLuc indicator” value in the data set with HSV-1 ICP0 gene was “little or no detectable knockdown”.

B6: tRNAMHV-7: MHV68 tRNA promoter (SEQ ID NO: 50) fused to sgRNA (nucleic acid)
DNA: GCCAGGGTAGCTCAATTGGTAGAGCATCAGGCTAGTATCCTGTCGGTTCCGGTTCAAGTCCGGGCCCTGGTT
modifications: expressed or natural sequence
On to B6, for which the “knockdown of E6- and E7-based FLuc indicator constructs” value in data set [1] is “effective and comparable knockdown”.

B7: U6 promoter: U6 pol III promoter, ~254 bp, SEQ ID NO: 51, driving sgRNA transcription (nucleic acid)
DNA: TCTAGAGAGGGCCTATTTCCCATGATTCCTTCATATTTGCATATACGATACAAGGCTGTTAGAGAGATAATTGGAATTAATTTGACTGTAAACACAAAGATATTAGTACAAAATACGTGACGTAGAAAGTAATAATTTCTTGGGTAGTTTGCAGTTTTAAAATTATGTTTTAAAATGGACTATCATATGCTTACCGTAACTTGAAAGTATTTCGATTTCTTGGCTTTATATATCTTGTGGAAAGGACGAAACACC
modifications: Synthetic U6 Promoter
Turning to B7, the “knockdown of E6- and E7-based FLuc indicator constructs” value in data set [1] is “effective and comparable knockdown”.

B8: tRNAGLU: human tRNA promoter, SEQ ID NO: 46, fused to sgRNA (nucleic acid)
DNA: TCCCTGGTGGTCTAGTGGTTAGGATTCGGCGCTCTCACCGCCGCGGCCCGGGTTCGATTCCCGGTCAGGGAA
modifications: expressed or natural sequence
As for B8, the “knockdown of FLuc indicator” value in the data set with HSV-1 ICP0 gene is recorded as “strong knockdown”.
